From publication PMC3528043, “Synthesis of New N,N’-Bis(5-arylidene-4-oxo-4,5-dihydrothiazolin-2-yl)piperazine Derivatives Under Microwave Irradiation and Preliminary Biological Evaluation” (Scientia Pharmaceutica, 2012)
pIC50: −log10 of the molar value.

Columns and labels:
CDK5/p25 = molecular target: T1, CDK5/p25 (Homo sapiens, UniProt Q00535); test: In vitro kinase inhibition assay CDK5/p25; format: biochemical; settings: for pIC50: 15 μM ATP, 30°C, buffer C, histone H1
T1 construct: made in house
T1 sequence (Q00535 whole entry): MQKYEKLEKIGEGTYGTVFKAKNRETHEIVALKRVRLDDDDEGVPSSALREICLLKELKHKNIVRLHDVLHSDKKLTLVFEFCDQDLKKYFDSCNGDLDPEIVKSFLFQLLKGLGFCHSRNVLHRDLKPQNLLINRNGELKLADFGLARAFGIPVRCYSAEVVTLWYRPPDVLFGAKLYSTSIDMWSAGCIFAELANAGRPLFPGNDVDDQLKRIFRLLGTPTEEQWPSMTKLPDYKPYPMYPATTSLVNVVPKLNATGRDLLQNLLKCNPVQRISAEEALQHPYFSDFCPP
T1 sequence (Q15078 99-307 partner limits assumed): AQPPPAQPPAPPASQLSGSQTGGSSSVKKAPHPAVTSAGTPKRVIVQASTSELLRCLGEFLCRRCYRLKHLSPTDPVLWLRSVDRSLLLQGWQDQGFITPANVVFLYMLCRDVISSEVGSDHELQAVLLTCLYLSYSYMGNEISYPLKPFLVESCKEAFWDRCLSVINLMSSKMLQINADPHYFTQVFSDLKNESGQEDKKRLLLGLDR
Description: (§2) Buffer A: 10 mM MgCl2, 1 mM EGTA, 1 mM DTT, 25 mM Tris-HCl pH 7.5, 50 μg heparin/ml. Buffer C: 60 mM ß-glycerophosphate, 15 mM p-nitrophenylphosphate, 25 mM Mops (pH 7.2), 5 mM EGTA, 15 mM MgCl2, 1 mM DTT, 1 mM sodium vanadate, 1 mM phenylphosphate. […] Blank values were subtracted and activities expressed in % of the maximal activity, i.e. in the absence of inhibitors. Controls were performed with appropriate dilutions of DMSO. The kinase peptide substrates were obtained from Millegen (Labege, France). […] ATP (3,000 Ci/mmol; 10 mCi/ml) in a final volume of 30 μl. After 30 min incubation at 30°C, the reaction was stopped by harvesting onto P81 phosphocellulose papers (Whatman) using a FilterMate harvester (Packard) and were washed in 1% phosphoric acid. Scintillation fluid was added and the radioactivity was measured in a Packard counter. CLK1 and CLK3 (human, recombinant, expressed in E. coli as GST fusion proteins) were assayed in buffer A (+ 0.15 mg BSA /ml) with RS peptide ([sequence]) (1μg/assay). […] Its kinase activity was assayed in buffer C, with 1 μg histone H1 /ml. GSK-3α/β (porcine brain, native) was assayed in Buffer A and using a GSK-3 specific substrate (GS-1: [sequence]pEDEEE) (pS stands for phosphorylated serine) [20].

GSK-3α/β = test: In vitro kinase inhibition assay GSK3α/β; format: biochemical, porcine; settings: for pIC50: 15 μM ATP, 30°C, buffer A, GS-1 substrate
Description: as §2

DYRK1A = DYRK1A (Homo sapiens, UniProt Q13627); test: In vitro kinase inhibition assay DYRK1A; format: biochemical; settings: for pIC50: 15 μM ATP, 30°C, buffer A, Woodtide substrate
Description: as §2

DYRK2 = molecular target: T2, DYRK2 (Homo sapiens, UniProt Q92630); test: In vitro kinase inhibition assay DYRK2; format: biochemical; settings: for pIC50: 15 μM ATP, 30°C, buffer A, Woodtide substrate
T2 sequence (Q92630 1-601): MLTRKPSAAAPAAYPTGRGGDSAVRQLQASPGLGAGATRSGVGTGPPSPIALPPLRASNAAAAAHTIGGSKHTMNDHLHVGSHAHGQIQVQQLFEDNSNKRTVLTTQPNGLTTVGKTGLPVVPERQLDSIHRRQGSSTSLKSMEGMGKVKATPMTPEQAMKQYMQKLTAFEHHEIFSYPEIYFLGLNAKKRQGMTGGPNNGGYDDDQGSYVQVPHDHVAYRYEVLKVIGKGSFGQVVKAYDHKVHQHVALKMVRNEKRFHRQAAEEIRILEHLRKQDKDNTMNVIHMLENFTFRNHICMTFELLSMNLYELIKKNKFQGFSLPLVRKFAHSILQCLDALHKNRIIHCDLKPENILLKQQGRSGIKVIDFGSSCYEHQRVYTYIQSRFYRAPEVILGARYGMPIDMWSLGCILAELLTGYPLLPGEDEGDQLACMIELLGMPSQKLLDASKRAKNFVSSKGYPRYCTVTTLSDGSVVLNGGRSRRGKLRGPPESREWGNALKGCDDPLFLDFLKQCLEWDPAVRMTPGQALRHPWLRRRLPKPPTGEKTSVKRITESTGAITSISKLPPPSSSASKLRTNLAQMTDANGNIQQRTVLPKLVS

CLK1 = CLK1 (Homo sapiens, UniProt P49759); test: In vitro kinase inhibition assay CLK1; format: biochemical; settings: for pIC50: 15 μM ATP, 30°C, buffer A, RS peptide
Sequence of CLK1 (P49759 whole entry): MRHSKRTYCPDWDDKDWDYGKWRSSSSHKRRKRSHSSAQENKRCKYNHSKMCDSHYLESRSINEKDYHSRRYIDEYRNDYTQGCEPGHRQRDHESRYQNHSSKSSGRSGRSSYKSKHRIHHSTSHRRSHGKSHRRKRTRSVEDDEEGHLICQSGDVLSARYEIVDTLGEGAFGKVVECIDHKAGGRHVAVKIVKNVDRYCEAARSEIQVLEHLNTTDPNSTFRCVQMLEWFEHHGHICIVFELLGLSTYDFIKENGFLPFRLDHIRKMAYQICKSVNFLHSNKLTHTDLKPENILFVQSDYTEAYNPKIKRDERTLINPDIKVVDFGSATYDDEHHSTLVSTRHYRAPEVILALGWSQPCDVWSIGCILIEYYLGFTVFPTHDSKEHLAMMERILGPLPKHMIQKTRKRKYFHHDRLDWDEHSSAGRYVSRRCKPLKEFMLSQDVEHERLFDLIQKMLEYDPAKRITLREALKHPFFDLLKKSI
Description: as §2

CLK2 = test: In vitro kinase inhibition assay CLK2; format: biochemical, human; settings: for pIC50: 15 μM ATP, 30°C, buffer A, RS peptide
Description: Buffer A: 10 mM MgCl2, 1 mM EGTA, 1 mM DTT, 25 mM Tris-HCl pH 7.5, 50 μg heparin/ml. […] Blank values were subtracted and activities expressed in % of the maximal activity, i.e. in the absence of inhibitors. Controls were performed with appropriate dilutions of DMSO. The kinase peptide substrates were obtained from Millegen (Labege, France). […] ATP (3,000 Ci/mmol; 10 mCi/ml) in a final volume of 30 μl. After 30 min incubation at 30°C, the reaction was stopped by harvesting onto P81 phosphocellulose papers (Whatman) using a FilterMate harvester (Packard) and were washed in 1% phosphoric acid. Scintillation fluid was added and the radioactivity was measured in a Packard counter.

Huh7 = test: Cell survival assay, Huh7 (liver) tumor cell line; format: cell-based; settings: Homo sapiens, Huh-7; Huh7 liver tumor cells, 48 h exposure, survival by nuclei count; read-out: Cell lines IC50 Huh7
Description: (§1) Skin diploid fibroblastic cells were provided by BIOPREDIC International Company (Rennes, France). Caco-2 cells and Huh7 cells were obtained from the ECAC collection. Cells were grown according to ECAC recommendations. The RLEC-F1 clone was derived from an established rat biliary epithelial cell line as previously described. The toxicity test of the compounds on these cells was as follows: 4 × 10^3 cells were seeded in 96 multiwell plates and left for 24 h for attachment, spreading, and growing. Then they were exposed for 48 h to increasing concentrations of the compounds, ranging from […] in a final volume of 80 μL of culture medium. They were then fixed with 4% paraform-aldehyde solution and the nuclei were stained with […] and counted using automated imaging analysis (Simple PCI software).

Caco2 = test: Cell survival assay, Caco2 (colon) tumor cell line; format: cell-based; settings: Homo sapiens, Caco-2; Caco2 colon tumor cells, 48 h exposure, survival by nuclei count; read-out: Cell lines IC50 Caco2
Description: as §1

MDA-MB 231 = test: Cell survival assay, MDA-MB 231 (breast) tumor cell line; format: cell-based; settings: Homo sapiens; MDA-MB 231 breast tumor cells, 48 h exposure, survival by nuclei count; read-out: Cell lines IC50 MDA-MB 231
HCT 116 = test: Cell survival assay, HCT 116 (colon) tumor cell line; format: cell-based; settings: Homo sapiens; HCT 116 colon tumor cells, 48 h exposure, survival by nuclei count; read-out: Cell lines IC50 HCT 116
PC3 = test: Cell survival assay, PC3 (prostate) tumor cell line; format: cell-based; settings: Homo sapiens, PC-3; PC3 prostate tumor cells, 48 h exposure, survival by nuclei count; read-out: Cell lines IC50 PC3
NCI = test: Cell survival assay, NCI (lung) tumor cell line; format: cell-based; settings: NCI lung tumor cells, 48 h exposure, survival by nuclei count; read-out: Cell lines IC50 NCI
[1] = test system: Skin diploid fibroblastic cells; test: Cell survival assay, normal fibroblasts; format: cell-based; settings: Fibroblast, 48 h exposure, survival by nuclei count, read-out: Cell lines IC50 Fibroblats
Description: as §1

In the case of `COc1ccc(/C=C2\SC(NCCCN3CCN(CCCNC4=NC(=O)/C(=C/c5ccc(OC)cc5)S4)CC3)=NC2=O)cc1` [Compound 5d, (5Z,5’Z)-2,2’-[Piperazine-1,4-diylbis(propane-3,1-diylimino)]bis[5-(4-methoxybenzylidene)-1,3-thiazol-4(5H)-one]], the pIC50 (CDK5/p25) was less than 5.00, the pIC50 (GSK-3α/β) was less than 5.00 and the “Activity towards DYRK1A (in words)” value (DYRK1A) was “nanomolar inhibition potency”. For the same compound, the pIC50 (DYRK1A) was 7.39, the pIC50 (DYRK2) was 6.22 and the pIC50 (CLK1) was 6.30. The pIC50 (CLK2) was 5.11 and the melting point was 220 to 222 °C.

Work on `O=C1N=C(NCCCN2CCN(CCCNC3=NC(=O)/C(=C/c4ccc5c(c4)OCO5)S3)CC2)S/C1=C\c1ccc2c(c1)OCO2` [Compound 5e, (5Z,5’Z)-2,2’-[Piperazine-1,4-diylbis(propane-3,1-diylimino)]bis[5-(1,3-benzodioxol-5-ylmethylene)-1,3-thiazol-4(5H)-one]] yielded a melting point of 222 to 224 °C.

Work on `COc1ccc(/C=C2\SC(N3CCN(C4=NC(=O)/C(=C/c5ccc(OC)cc5)S4)CC3)=NC2=O)cc1` [Compound 5b, (5Z,5’Z)-2,2’-(Piperazine-1,4-diyl)bis[5-(4-methoxybenzylidene)-1,3-thiazol-4(5H)-one]] yielded a melting point greater than 260 °C.

`O=C(O)CCN1C(=O)/C(=C/c2ccc3c(c2)OCCO3)SC1=S` [Compound 3g, 3-[(5Z)-5-(2,3-Dihydro-1,4-benzodioxin-6-ylmethylidene)-4-oxo-2-thioxo-1,3-thiazolidin-3-yl]propanoic acid] showed a melting point of 226 to 228 °C.

Compound `O=C1N=C(N2CCN(C3=NC(=O)/C(=C/c4ccc5c(c4)OCO5)S3)CC2)S/C1=C\c1ccc2c(c1)OCO2` [Compound 5c, (5Z,5’Z)-2,2’-(Piperazine-1,4-diyl)bis[5-(1,3-benzodioxol-5-ylmethylene)-1,3-thiazol-4(5H)-one]] has a pIC50 (Huh7) of less than 4.60, a pIC50 (Caco2) of 4.70 and a pIC50 (MDA-MB 231) of less than 4.60. The pIC50 (HCT 116) was less than 4.60, the pIC50 (PC3) was 4.40 and the pIC50 (NCI) was less than 4.60. The pIC50 [1] was 4.40.

Work on `O=C1NC(=S)S/C1=C\c1ccc2c(c1)OCO2` [Compound 3c, (5Z)-5-(1,3-Benzodioxol-5-ylmethylidene)-2-thioxo-1,3-thiazolidin-4-one] yielded a pIC50 (Huh7) of less than 4.60, a pIC50 (Caco2) of less than 4.60 and a pIC50 (MDA-MB 231) of less than 4.60. The pIC50 (HCT 116) was less than 4.60, the pIC50 (PC3) was less than 4.60 and the pIC50 (NCI) was less than 4.60. The pIC50 [1] was less than 4.60, the pIC50 (CDK5/p25) was less than 5.00 and the pIC50 (GSK-3α/β) was 5.07. It also gave a pIC50 (DYRK1A) of 7.15.

Work on `COc1ccc(/C=C2\SC(=S)NC2=O)cc1` [Compound 3b, (5Z)-5-(4-Methoxybenzylidene)-2-thioxo-1,3-thiazolidin-4-one] yielded a pIC50 (Huh7) of less than 4.60, a pIC50 (Caco2) of less than 4.60 and a pIC50 (MDA-MB 231) of less than 4.60. The pIC50 (HCT 116) was less than 4.60, the pIC50 (PC3) was less than 4.60 and the pIC50 (NCI) was less than 4.60. For the same compound, the pIC50 [1] was less than 4.60, the “Activity towards CDK5/p25 (in words)” value (CDK5/p25) was “inactive” and the pIC50 (CDK5/p25) was less than 5.00. The “Activity towards GSK3α/β (in words)” value (GSK-3α/β) was “inactive”, the pIC50 (GSK-3α/β) was less than 5.00 and the “Activity towards DYRK1A (in words)” value (DYRK1A) was “inactive”. For the same compound, the pIC50 (DYRK1A) was less than 5.00, the “Activity towards DYRK2 (in words)” value (DYRK2) was “inactive” and the pIC50 (DYRK2) was less than 5.00. The “Activity towards CLK1 (in words)” value (CLK1) was “inactive”, the pIC50 (CLK1) was less than 5.00 and the “Activity towards CLK2 (in words)” value (CLK2) was “inactive”. For the same compound, the pIC50 (CLK2) was less than 5.00.

Work on `O=C1N=C(N2CCN(C3=NC(=O)/C(=C/c4ccccc4)S3)CC2)S/C1=C\c1ccccc1` [Compound 5a, (5Z,5’Z)-2,2’-(Piperazine-1,4-diyl)bis(5-benzylidene-1,3-thiazol-4(5H)-one)] yielded a pIC50 (Huh7) of less than 4.60, a pIC50 (Caco2) of 4.60 and a pIC50 (MDA-MB 231) of less than 4.60. It also gave a pIC50 (HCT 116) of less than 4.60, a pIC50 (PC3) of less than 4.60 and a pIC50 (NCI) of less than 4.60. It also gave a pIC50 [1] of less than 4.60 and a melting point greater than 260 °C.

Work on `O=C(O)CCN1C(=O)/C(=C/c2ccccc2)SC1=S` [Compound 3d, 3-[(5Z)-5-Benzylidene-4-oxo-2-thioxo-1,3-thiazolidin-3-yl]propanoic acid] yielded a melting point of 224 to 226 °C.
